We go through 19 compounds from ChEMBL document CHEMBL1148791, “High-throughput screening of drug-brain tissue binding and in silico prediction for assessment of central nervous system drug delivery” (J Med Chem, 2007).

Data set [1] in a line: physchem.
Description: Acid dissociation constant, pKa of the compound
Data set [2] in a line: physchem. To be noted: buffer, pH 7.4.
The conditions of data set [3]: buffer, pH 7.4.
A short description of data set [4]: Fraction unbound ligand in rat adrenal gland after 20 hrs. To be noted: adrenal gland tissue. Format: ADME, tissue-based.
The nature of data set [5]: Fraction unbound ligand in rat brain after 20 hrs. The settings on record: brain tissue. The format is ADME, tissue-based.
Data set [6] in a line: Fraction unbound ligand in rat brown fat tissue after 20 hrs. Format: ADME, tissue-based, Adipose tissue.
Data set [7] is described as follows: Fraction unbound ligand in rat lung after 20 hrs. The settings on record: lung tissue. The format is ADME, tissue-based.

Take `O=C1CC2(CCCC2)CC(=O)N1CCCCN1CCN(c2ncccn2)CC1` [BUSPIRONE]: the pKa in the data set “physchem [1]” was 7.8.

The compound `NC(=O)N1c2ccccc2C=Cc2ccccc21` [CARBAMAZEPINE] showed a logD in the data set “physchem [2]” of 1.77.

For `CCCC(C)(COC(N)=O)COC(=O)NC(C)C` (stereo unspecified) [CARISOPRODOL], in “physchem [2]”, the logD came out at 2.4.

The compound `CN(C)CCCN1c2ccccc2Sc2ccc(Cl)cc21` [CHLORPROMAZINE] gave a pH-dependent lipophilicity (logD) in “physchem [2]” of 3.7.

Regarding `CN1CCN(C2=Nc3cc(Cl)ccc3Nc3ccccc32)CC1` [CLOZAPINE], in “physchem [2]”, the logD was determined as 3.46.

In “physchem [2]”, `CN(C)CCC=C1c2ccccc2C=Cc2ccccc21` [CYCLOBENZAPRINE] registered a pH-dependent lipophilicity (logD) of 2.92. In “physchem [1]”, this compound displayed a pKa of 9.69.

Compound `COCCCC/C(=N\OCCN)c1ccc(C(F)(F)F)cc1` [FLUVOXAMINE] gave a pKa in “physchem [1]” of 9.4.

`O=C(CCCN1CCC(O)(c2ccc(Cl)cc2)CC1)c1ccc(F)cc1` [HALOPERIDOL] displayed a log distribution coefficient (logD) in the data set “physchem [2]” of 0.18.

In the data set “physchem [2]”, `COc1ccc2c3c1O[C@H]1C(=O)CC[C@H]4[C@@H](C2)N(C)CC[C@]314` [HYDROCODONE] displayed a logD of 3.38. In the data set “physchem [1]”, the pKa was determined as 8.43.

As for `OCCOCCN1CCN(C(c2ccccc2)c2ccc(Cl)cc2)CC1` (stereo unspecified) [HYDROXYZINE], in data set [3], the “Log D” value is on record as 0.18. For the same compound, in the data set “physchem [1]”, the pKa worked out at 7.75.

The compound `COC(=O)[C@H](c1ccccc1)C1CCCCN1` (stereo partly specified) [METHYLPHENIDATE] came in with a log distribution coefficient (logD) in the data set “physchem [2]” of -0.15. Also, the pKa in “physchem [1]” worked out at 9.24.

`Cc1ncc2n1-c1ccc(Cl)cc1C(c1ccccc1F)=NC2` [MIDAZOLAM] yielded a logD in “physchem [2]” of 2.5. The compound also yielded a pKa in “physchem [1]” of 5.44.

For the compound `CNCCC=C1c2ccccc2CCc2ccccc21` [NORTRIPTYLINE], the logD in “physchem [2]” amounted to 2.23. This compound displayed a pKa in “physchem [1]” of 10.4.

For the compound `Fc1ccc([C@@H]2CCNC[C@H]2COc2ccc3c(c2)OCO3)cc1` [PAROXETINE], the logD in the data set “physchem [2]” is 2.27. In the data set “physchem [1]”, this compound gave a pKa of 10.1.

Regarding `CC(C)NCC(O)COc1cccc2ccccc12` (stereo unspecified) [PROPRANOLOL], the fraction unbound at 20 h turned out to be 0.01 in data set [4], 0.021 in data set [5], 0.097 in data set [6] and 0.053 in data set [7].

On to `Cc1nc2n(c(=O)c1CCN1CCC(c3noc4cc(F)ccc34)CC1)CCCC2` [RISPERIDONE], for which the logD in the data set “physchem [2]” worked out at 1.66.

`O=c1n(CCCN2CCN(c3cccc(Cl)c3)CC2)nc2ccccn12` [TRAZODONE]: the logD in the data set “physchem [2]” came to 2.97. The pKa in the data set “physchem [1]” was 6.73.

Regarding `COc1ccc(C(CN(C)C)C2(O)CCCCC2)cc1` (stereo unspecified) [VENLAFAXINE], the logD in the data set “physchem [2]” is 0.88.

Consider `Cc1ccc(-c2nc3ccc(C)cn3c2CC(=O)N(C)C)cc1` [ZOLPIDEM], for which the pH-dependent lipophilicity (logD) in the data set “physchem [2]” came out at 2.35. The pKa in “physchem [1]” was 6.02.
